System: ASCs
Assay: MTS assay after post-thaw seeding of ASCs pretreated with compounds prior to freezing
Format: cell-based, human
Conditions: 24 hours pretreatment before freezing (LY294 10 μM, sc79 10 μM, Exendin-4 20 nM)
Protocol: ASCs from donor A were thawed by warming the vials in a 37° C. bath and diluting the freezing medium containing DMSO with fresh complete DMEM (DMEM/F-12 media—GlutaMAX™-I, Gibco, supplemented with 100 μg/mL penicillin/streptomycin and 10% FBS). Cells were centrifuged at 450 g for 6 minutes at room temperature to eliminate leftover DMSO and plated in T-175 flasks at 20.000 cells/cm^2 in complete DMEM.
A 600 mM stock of NAC (SIGMA) was prepared in Milli-Q water (Millipore). This stock was used for pre-treatment and post-treatment by adding directly 50 μL stock solution per well into 5 mL of medium, making a final concentration of 6 mM. For 2 mM, only 16.7 μL were added per well, and in the case of 12 mM, 100 μL of stock were added. DMSO was used as the vehicle for sc79 and LY294.
Following the pretreatment step, the medium was removed, the cells were washed with PBS and trypsinized using trypsin-EDTA 0.25% (ThermoFisher) for 8 minutes at 37° C. After trypsin inactivation with complete DMEM, cells were harvested and centrifuged prior to resuspension in freezing medium (FBS with 10% DMSO), and frozen into 500,000 or 1 million cells per vial and stored in liquid nitrogen for further use. Specifically, the cells were frozen at −80° C. for 24 hours in a Cool Cell® device (BioCision) and then transferred to a liquid nitrogen storage container. All experiments were performed in incubators and 37° C., 5% CO2.
[…] The CellTiter 96° Aqueous One Solution Cell Proliferation Assay is a colorimetric method for determining the number of viable cells. The CellTiter 96° Aqueous One Solution reagent contains a tetrazolium compound [3-(4,5-dimethylthiazol-2-yl)-5-(3-carboxymethoxyphenyl)-2-(4-sulfophenyl)-2H-tetrazolium, MTS] and an electron coupling reagent (phenazine ethosulfate; PES). The MTS tetrazolium compound is bioreduced by cells—presumably by NADPH or NADH produced by dehydrogenase enzymes in metabolically active cells—into a coloured formazan product that is soluble in tissue culture medium.
Briefly, 40 μL of the reagent was added to 200 μL of complete DMEM in each well and absorbance was measured after 2-3 hours at 490 nm using a […]. Each condition was measured in 6 technical repeats. The MTS assay results are presented as percentage of absorbance at 490 nm relative to the non-treated (NT) cells.

**Q.** For `O=c1cc(N2CCOCC2)oc2c(-c3ccccc3)cccc12` [LY294], which “effect of pre-treatment on post-thaw cell number” value (“effect of pre-treatment” below) is on record?
**A.** did not show reproducible effects on cell number

**Q.** With “IL6: pre-treatment assessed in addition to NAC; no concentration given” as the compound, how does the “effect of pre-treatment” value read?
**A.** did not show reproducible effects on cell number

**Q.** `CCOC(=O)C1=C(N)Oc2ccc(Cl)cc2C1C(C#N)C(=O)OCC` (stereo not shown) [sc79] was tested. Which “effect of pre-treatment” value did it give?
**A.** did not show reproducible effects on cell number

**Q.** For Exendin-4, which “effect of pre-treatment” value is on record?
**A.** did not show reproducible effects on cell number
